# Entries after “also recorded” stand apart in the source; their conditions may differ.
# Legend:
# [1] = Treatment of muscle pain (McArdle-Erkrankung) in a person, intranasal dosing; format: in vivo, Mensch
# Description: […] mit starken Muskelschmerzen am Oberarm (McArdle-Erkrankung) gab man 100 mcg Gonadoliberin intra- nasal. Die starken Dauerschmerzen verschwanden nach etwa 15 Minuten. Am Anfang der Behandlung wurde mehrmals täglich (3 mal), später 2 mal und dann nur noch einmal täglich appliziert um einer Tachyphylaxie vorzubeugen. […] Der anfangs sehr schwache Blutdruck der Patientin von 90/60 wurde interessanterweise nicht weiter gesenkt, sondern leicht erhöht, so daß er sich während der Therapie auf 110/65 einpendelte. Diese kleinen Gonadoliberindosen wirken also nicht generell blutdrucksenkend ', sondern können auch bei niedrigem Blutdruck blutdruckerhöhend wirken.
# Eine Frau, 46 Jahre alt, hatte starke Schmerzen im Oberarm. Der Arm konnte nicht vom Körper weg bewegt werden. Nach einer intranasalen Applikation von 100 µg Gonadoliberin war der Dauerschmerz in Ruhehaltung verschwunden. Der sehr schwache Blutdruck von 90/60 stieg während der Behandlung mit Gonadoliberin auf 110/65. Am ersten Tag wurde insgesamt 3 mal, am zweiten und dritten Tag 2 mal und am vierten und folgenden Tagen nur noch einmal täglich am Morgen therapiert. Im Lauf der Therapie wurden auch die Bewegungsschmerzen weniger und der Arm konnte wieder normal bewegt werden.
# [2] = Intranasal absorption of Gonadoliberin; format: in vivo, Mensch; conditions: intranasal dose of 100 mcg, calculated from the Resorptionsrate
# [3] = Blood pressure lowering in a hypertensive person after intranasal dosing; format: in vivo, Mensch; conditions: for systolischer Blutdruck: hypertensive person, 100 µg intranasal, baseline etwa 150 mm Hg
# Description: (§1) In Ratten wurde durch eine Ca^2+-Gluconat-Infusion der Plasma-Ca^2+-Spiegel erhöht. Durch diese Infusion wird der PTH-Spiegel suppremiert (The New England J. Med. 307, 1982, S. 226 - 228). Eine Bolusinjektion der Gonadoliberinagonisten erhöhte jedoch signifikant den PTH-Spiegel gegenüber den Kontrollen und potenzierte das Plasma-Ca^2+. Das 30 Minuten nach der Injektion der Gonadoliberinagonisten erhöhte PTH bewirkte nach 60 Minuten einen signifikanten Serum-Ca^2+-Anstieg. Daß diese Beeinflußung des Plasma-Ca^2+-Spiegels durch endogenes PTH oder PTH selbst einen Einfluß auf den Blutdruck hat, wurde an einer Frau mit zu hohem Blutdruck überprüft. Nach einmaliger intranasaler Gabe von 100 mcg Gonadoliberin, was bei einer Resorptionsrate von 2 - 5 % also nur etwa 2 - 5 mcg resorbierten Gonadoliberins entspricht, konnte der erhöhte Blutdruck 8 Stunden lang stark gesenkt werden.
# Eine hypertensive, 48 Jahre alte Frau, deren Bluthochdruck mit ß-Blockern behandelt wird, setzte ihre Be-.handlung am Versuchstag aus. Versuchsbeginn: 17.00 Uhr.
# Der systolische Blutdruck von etwa 150 mm Hg sank nach intranasaler Gabe von 100 µg Gonadoliberin innerhalb von 30 Minuten auf etwa 125 mm Hg, blieb 90 Minuten bei 125 mm Hg und stieg dann für die nächsten 4 Stunden auf 130 mm Hg. Nach einer 8-stündigen Bettruhe, während der die Versuchsperson ausgezeichnet schlief, war der Blutdruck auf etwa 137 mm Hg gestiegen.
# Parathormon = assay: Plasma levels of parathormone and Ca2+ in Ca2+-infused anaesthetised rats after i.v. injection; format: in vivo, Wistarratten; conditions: for Stimulierung des PTH: Ratten
# Description: as §1
# Zwei Gruppen von je 31 Wistarratten wurden mit Pentobarbital (45 mg/kg i.p.) narkotisiert. Man entnahm von allen Tieren eine Blutprobe (Ausgangswert). […] Nach 30, 60, 90, 120 und 180 Minuten wurde ein Teil der Tiere getötet und entblutet. Das Blutserum wurde auf Ca^2+ und Parathormon untersucht.
# In beiden-Figuren ist bei den einzelnen Meßpunkten die Anzahl n der Messungen sowie die Standardabweichung des Meßwertes (graphisch) angegeben.
# [4] = je nach Test; literature (Vitamins and Hormons 38, 1980; J. Med. Chem. 25, 1982); cited from earlier work
# Plasma-Glucose = conditions: Kaninchen, Glucosebolus 500 mg/kg i.v.; 5 ng/kg i.v.; after 70 - 90 Minuten; Verum-Gruppe vs Placebo-Gruppe
# Description: Der Einfluß auf den Blutzucker. wurde zunächst an Kaninchen überprüft. Kaninchen wurden zur Hemmung des endogen Glucagons mit einem Glucosebolus versehen.
# Je 3 wachen Kaninchen gab man einen Glucosebolus (500 mg/ kg i.v.). […] Nach 10, 30, 40, 50, 60, 70, 80 und 90 Minuten wurde Blut abgenommen und daraus die Blutglucose bestimmt.
# Bei den einzelnen Meßpunkten ist jeweils graphisch die Standardabweichung des Meßwertes angegeben (n ist jeweils 3).
# [5] = person with high blood pressure, single intranasal dose of 100 mcg
compound,measurement,setting,value
CC(C)C[C@H](NC(=O)CNC(=O)[C@H](Cc1ccc(O)cc1)NC(=O)[C@H](CO)NC(=O)[C@H](Cc1c[nH]c2ccccc12)NC(=O)[C@H](Cc1cnc[nH]1)NC(=O)[C@@H]1CCC(=O)N1)C(=O)N[C@@H](CCCNC(=N)N)C(=O)N1CCC[C@H]1C(=O)NCC(N)=O [Gonadoliberin],time until the starke Dauerschmerzen disappeared,"[1]; person with muscle pain in the upper arm (McArdle-Erkrankung), 100 mcg intranasal",~15 Minuten
same,Bewegungsschmerzen / movement of the arm,"[1]; person with muscle pain, 100 µg intranasal 3 to 1 times daily, in the course of therapy",ohne Schmerzen bewegt; also recorded: weniger
same,Blutdruck,"[1]; person with muscle pain, 100 µg intranasal, during therapy, baseline 90/60",110/65
same,Dauerschmerz in Ruhehaltung,"[1]; person, upper arm pain, 100 µg intranasal",verschwunden
same,resorbiertes Gonadoliberin,[2],2 to 5 µg
same,systolischer Blutdruck,[3]; after a subsequent 8-hour bed rest,~137 mm Hg
same,systolischer Blutdruck,[3]; maintained for 90 Minuten after the fall,125 mm Hg
same,systolischer Blutdruck,[3]; the following 4 Stunden,130 mm Hg
same,systolischer Blutdruck,[3]; within 30 Minuten,~125 mm Hg
same,duration of blood pressure lowering,[3]; [5],8 Stunden
same,erhöhter Blutdruck,[3]; [5],stark gesenkt
same,Stimulierung des PTH,Parathormon; dose 50 ng/kg,stimulieren
CC(C)C[C@H](NC(=O)[C@@H](Cc1ccc2ccccc2c1)NC(=O)[C@H](Cc1ccc(O)cc1)NC(=O)[C@H](CO)NC(=O)[C@H](Cc1c[nH]c2ccccc12)NC(=O)[C@H](Cc1cnc[nH]1)NC(=O)[C@@H]1CCC(=O)N1)C(=O)N[C@@H](CCCNC(=N)N)C(=O)N1CCC[C@H]1C(=O)NCC(N)=O [[D-3-(2-Naphthyl)-Ala^6] Gonadoliberin],Wirkung relative to Gonadoliberin (mal stärker),[4],noch höhere Aktivitäten
Cc1cc(C)c(C[C@@H](NC(=O)[C@H](Cc2ccc(O)cc2)NC(=O)[C@H](CO)NC(=O)[C@H](Cc2c[nH]c3ccccc23)NC(=O)[C@H](Cc2cnc[nH]2)NC(=O)[C@@H]2CCC(=O)N2)C(=O)N[C@@H](CC(C)C)C(=O)N[C@@H](CCCNC(=N)N)C(=O)N2CCC[C@H]2C(=O)NCC(N)=O)c(C)c1 [[D-3-(2.4.6.Trimethylphenyl)-Ala^6]-Gonadoliberin],Wirkung relative to Gonadoliberin (mal stärker),[4],noch höhere Aktivitäten
[D-Ser(Bu^t) ^6] Gonadoliberin-(1-9)-nonapeptid-ethylamid [Buserelin],Blutglucosewerte,Plasma-Glucose,signifikant erhöht
same,Stimulierung des PTH,Parathormon; dose 5 ng/kg,stimulieren
same,Parathormon im Blutserum,"Parathormon; Wistarratten, Ca2+-Infusion 30 mg/kg/h, 5 ng/kg i.v., after 30 Minuten, Verum-Gruppe vs Placebogruppe",signifikant an
same,Ca^2+-Spiegel im Blutserum,"Parathormon; Wistarratten, Ca2+-Infusion 30 mg/kg/h, 5 ng/kg i.v., after 60 Minuten, Verum-Gruppe vs Placebogruppe",deutlich erhöht

# Reference: patent EP0137294A2, “Gonadoliberin and gonadoliberin agonists in the treatment of metabolic diseases due to too small a parathormone level” (HOECHST AKTIENGESELLSCHAFT, priority 1983, dated 1985)
